Results published in patent publication US10023570B2 (Array BioPharma, Inc., priority 2015, dated 2018).

These compounds were tested against human KDR protein in HEK-293 cells (Homo sapiens (Human), UniProt P35968) (assay: KDR Cell Assay (phospho-KDR in HEK-293 cells expressing inducible KDR)). Conditions: pKDR Cell HEK 10% FBS IC50, HEK-293 cells expressing inducible KDR, VEGF stimulated, 10% FBS.
Type: cell-based
Summary of the method: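 HEK-293 cells with inducible human KDR were treated with compound for 1 h in DMEM (0.25% DMSO final), then lysed. Phospho-KDR was quantified by Meso Scale immunoassay, expressed as percent of control, and IC50 taken where a 4-parameter logistic fit crossed 50 POC.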

human KDR protein in HEK-293 cells, sequence (P35968 20-1356): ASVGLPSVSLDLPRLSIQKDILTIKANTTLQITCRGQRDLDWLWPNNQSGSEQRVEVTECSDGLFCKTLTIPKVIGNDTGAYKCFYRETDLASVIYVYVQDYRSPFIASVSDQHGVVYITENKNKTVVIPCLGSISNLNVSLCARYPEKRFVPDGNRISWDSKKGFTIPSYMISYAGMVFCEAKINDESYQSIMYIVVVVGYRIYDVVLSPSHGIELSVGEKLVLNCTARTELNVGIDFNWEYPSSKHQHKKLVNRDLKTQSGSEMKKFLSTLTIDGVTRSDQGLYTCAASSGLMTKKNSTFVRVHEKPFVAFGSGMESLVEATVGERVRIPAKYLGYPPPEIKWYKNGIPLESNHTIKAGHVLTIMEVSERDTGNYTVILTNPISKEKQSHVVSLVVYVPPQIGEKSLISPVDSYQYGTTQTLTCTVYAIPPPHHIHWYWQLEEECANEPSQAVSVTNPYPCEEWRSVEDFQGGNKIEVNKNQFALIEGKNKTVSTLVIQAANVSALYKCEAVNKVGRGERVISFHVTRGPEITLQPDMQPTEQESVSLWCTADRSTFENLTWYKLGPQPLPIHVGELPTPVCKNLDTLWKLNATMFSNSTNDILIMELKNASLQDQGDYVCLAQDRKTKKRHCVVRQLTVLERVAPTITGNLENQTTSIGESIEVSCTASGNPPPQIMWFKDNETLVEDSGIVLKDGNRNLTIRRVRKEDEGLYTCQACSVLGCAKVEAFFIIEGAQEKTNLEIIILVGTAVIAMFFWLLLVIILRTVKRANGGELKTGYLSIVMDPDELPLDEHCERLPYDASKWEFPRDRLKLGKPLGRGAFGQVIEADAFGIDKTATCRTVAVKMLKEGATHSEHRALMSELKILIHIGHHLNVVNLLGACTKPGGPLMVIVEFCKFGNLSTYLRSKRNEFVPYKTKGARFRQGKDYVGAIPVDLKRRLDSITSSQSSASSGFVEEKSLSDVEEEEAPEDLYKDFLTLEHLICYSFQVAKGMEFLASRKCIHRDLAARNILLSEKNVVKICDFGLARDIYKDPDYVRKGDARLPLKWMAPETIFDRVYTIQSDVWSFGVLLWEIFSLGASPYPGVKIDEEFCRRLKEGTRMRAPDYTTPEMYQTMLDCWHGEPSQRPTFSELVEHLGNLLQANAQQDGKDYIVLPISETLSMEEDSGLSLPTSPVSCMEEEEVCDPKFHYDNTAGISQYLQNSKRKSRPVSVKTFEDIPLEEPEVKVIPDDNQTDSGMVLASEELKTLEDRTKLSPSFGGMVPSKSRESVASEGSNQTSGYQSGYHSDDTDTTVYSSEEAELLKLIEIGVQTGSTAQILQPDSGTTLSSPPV

| SMILES | IC50 |
| --- | --- |
| Cn1cc(-c2cc(-c3ccc(N4CCN(C(=O)[C@H](O)c5ccccc5)CC4)nc3)c3ccnn3c2)cn1 [Example 313, (R)-2-hydroxy-1-(4-(5-(6-(1-methyl-1H-pyrazol-4-yl)pyrazolo[1,5-a]pyridin-4-yl)pyridin-2-yl)piperazin-1-yl)-2-phenylethanone] | ≥ 5000 nM |
| Cn1cc(-c2cc(-c3ccc(N4CCN(C(=O)[C@H](O)c5ccccc5Cl)CC4)nc3)c3ccnn3c2)cn1 [Example 320, (R)-2-(2-chlorophenyl)-2-hydroxy-1-(4-(5-(6-(1-methyl-1H-pyrazol-4-yl)pyrazolo[1,5-a]pyridin-4-yl)pyridin-2-yl)piperazin-1-yl)ethanone] | ≥ 5000 nM |
| Cn1cc(-c2cc(-c3ccc(N4CCN(C(=O)[C@H](O)c5cccc(Cl)c5)CC4)nc3)c3ccnn3c2)cn1 [Example 322, (R)-2-(3-chlorophenyl)-2-hydroxy-1-(4-(5-(6-(1-methyl-1H-pyrazol-4-yl)pyrazolo[1,5-a]pyridin-4-yl)pyridin-2-yl)piperazin-1-yl)ethanone] | 4860 nM |
| CN(C)CC(=O)N1CC2CCC(C1)N2c1ccc(-c2cc(-c3cnn(C)c3)cn3ncc(Cl)c23)cn1 [Example 336, 1-(8-(5-(3-chloro-6-(1-methyl-1H-pyrazol-4-yl)pyrazolo[1,5-a]pyridin-4-yl)pyridin-2-yl)-3,8-diazabicyclo[3.2.1]octan-3-yl)-2-(dimethylamino)ethanone] | 614 nM |
| Cn1cc(-c2cc(-c3ccc(N4CCN(C(=O)C5(c6ccccc6)CCOCC5)CC4)nc3)c3c(C#N)cnn3c2)cn1 [Example 342, 6-(1-methyl-1H-pyrazol-4-yl)-4-(6-(4-(4-phenyltetrahydro-2H-pyran-4-carbonyl)piperazin-1-yl)pyridin-3-yl)pyrazolo[1,5-a]pyridine-3-carbonitrile] | 4750 nM |
| Cn1cc(-c2cc(-c3ccc(N4CCN(C(=O)C5(c6ccc(Cl)cc6Cl)CC5)CC4)nc3)c3c(C#N)cnn3c2)cn1 [Example 343, 4-(6-(4-(1-(2,4-dichlorophenyl)cyclopropanecarbonyl)piperazin-1-yl)pyridin-3-yl)-6-(1-methyl-1H-pyrazol-4-yl)pyrazolo[1,5-a]pyridine-3-carbonitrile] | 1660 nM |
| Cn1cc(-c2cc(-c3ccc(N4CCN(C(=O)C5(C(F)(F)F)CC5)CC4)nc3)c3c(C#N)cnn3c2)cn1 [Example 346, 6-(1-methyl-1H-pyrazol-4-yl)-4-(6-(4-(1-(trifluoromethyl)cyclopropanecarbonyl)piperazin-1-yl)pyridin-3-yl)pyrazolo[1,5-a]pyridine-3-carbonitrile] | 1770 nM |
| Cn1cc(-c2cc(-c3ccc(N4CCN(C(=O)C5(C#N)CC5)CC4)nc3)c3c(C#N)cnn3c2)cn1 [Example 348, 4-(6-(4-(1-cyanocyclopropane-carbonyl)piperazin-1-yl)pyridin-3-yl)-6-(1-methyl-1H-pyrazol-4-yl)pyrazolo[1,5-a]pyridine-3-carbonitrile] | 1410 nM |
| Cn1cc(-c2cc(-c3ccc(N4CCN(C(=O)C5(c6cnccn6)CC5)CC4)nc3)c3c(C#N)cnn3c2)cn1 [Example 350, 6-(1-methyl-1H-pyrazol-4-yl)-4-(6-(4-(1-(pyrazin-2-yl)cyclopropane-carbonyl)piperazin-1-yl)pyridin-3-yl)pyrazolo[1,5-a]pyridine-3-carbonitrile] | 1860 nM |
| COCC1(C(=O)N2CCN(c3ccc(-c4cc(-c5cnn(C)c5)cn5ncc(C#N)c45)cn3)CC2)CC1 [Example 353, 4-(6-(4-(1-(methoxymethyl)cyclopropanecarbonyl)piperazin-1-yl)pyridin-3-yl)-6-(1-methyl-1H-pyrazol-4-yl)pyrazolo[1,5-a]pyridine-3-carbonitrile] | 1710 nM |
| COCC1(C(=O)N2CCN(c3ccc(-c4cc(-c5cnn(C)c5)cn5ncc(C#N)c45)cn3)CC2)CCC1 [Example 354, 4-(6-(4-(1-(methoxymethyl)cyclobutanecarbonyl)piperazin-1-yl)pyridin-3-yl)-6-(1-methyl-1H-pyrazol-4-yl)pyrazolo[1,5-a]pyridine-3-carbonitrile] | 1290 nM |
| Cn1cc(-c2cc(-c3ccc(N4CCN(C(=O)C5(c6cccc(Cl)c6)CC5)CC4)nc3)c3c(C#N)cnn3c2)cn1 [Example 356, 4-(6-(4-(1-(3-chlorophenyl)cyclopropane-1-carbonyl)piperazin-1-yl)pyridin-3-yl)-6-(1-methyl-1H-pyrazol-4-yl)pyrazolo[1,5-a]pyridine-3-carbonitrile 2,2,2-trifluoroacetate] | 126 nM |
| Cn1cc(-c2cc(-c3ccc(N4CCN(C(=O)Cc5ccc(OC(F)(F)F)cc5)CC4)nc3)c3c(C#N)cnn3c2)cn1 [Example 357, 6-(1-methyl-1H-pyrazol-4-yl)-4-(6-(4-(2-(4-(trifluoromethoxy)phenyl)acetyl)piperazin-1-yl)pyridin-3-yl)pyrazolo[1,5-a]pyridine-3-carbonitrile 2,2,2-trifluoroacetate] | 2040 nM |
| Cn1cc(-c2cc(-c3ccc(N4CCN(C(=O)c5ccccc5N5CCOCC5)CC4)nc3)c3c(C#N)cnn3c2)cn1 [Example 358, 6-(1-methyl-1H-pyrazol-4-yl)-4-(6-(4-(2-morpholinobenzoyl)piperazin-1-yl)pyridin-3-yl)pyrazolo[1,5-a]pyridine-3-carbonitrile bis(2,2,2-trifluoroacetate)] | 161 nM |
| Cn1cc(-c2cc(-c3ccc(N4CCN(C(=O)C5(c6ccccn6)CC5)CC4)nc3)c3c(C#N)cnn3c2)cn1 [Example 359, 6-(1-methyl-1H-pyrazol-4-yl)-4-(6-(4-(1-(pyridine-2-yl)cyclopropane-1-carbonyl)piperazin-1-yl)pyridin-3-yl)pyrazolo[1,5-a]pyridine-3-carbonitrile bis(2,2,2-trifluoroacetate)] | 910 nM |
| Cn1cc(-c2cc(-c3ccc(N4CCN(C(=O)Cc5ccc(F)cn5)CC4)nc3)c3c(C#N)cnn3c2)cn1 [Example 360, 4-(6-(4-(2-(5-fluoropyridin-2-yl)acetyl)piperazin-1-yl)pyridin-3-yl)-6-(1-methyl-1H-pyrazol-4-yl)pyrazolo[1,5-a]pyridine-3-carbonitrile bis(2,2,2-trifluoroacetate)] | 385 nM |
| Cn1cc(-c2cc(-c3ccc(N4CCN(C(=O)CN5CCOCC5)CC4)nc3)c3c(C#N)cnn3c2)cn1 [Example 362, 6-(1-methyl-1H-pyrazol-4-yl)-4-(6-(4-(2-morpholinoacetyl)piperazin-1-yl)pyridin-3-yl)pyrazolo[1,5-a]pyridine-3-carbonitrile bis(2,2,2-trifluoroacetate)] | 1860 nM |
| Cn1cc(-c2cc(-c3ccc(N4CCN(C(=O)C(c5ccccc5)N5CCOCC5)CC4)nc3)c3c(C#N)cnn3c2)cn1 (centres unmarked) [Example 363, 6-(1-methyl-1H-pyrazol-4-yl)-4-(6-(4-(2-morpholino-2-phenylacetyl)piperazin-1-yl)pyridin-3-yl)pyrazolo[1,5-a]pyridine-3-carbonitrile bis(2,2,2-trifluoroacetate)] | 2640 nM |

Next, values leading:

| IC50 | SMILES |
| --- | --- |
| ≥ 5000 nM | Cn1cc(-c2cc(-c3ccc(N4CCN(C(=O)C(O)c5ccc(F)cc5F)CC4)nc3)c3ccnn3c2)cn1 (centres unmarked) [Example 317, 2-(2,4-difluorophenyl)-2-hydroxy-1-(4-(5-(6-(1-methyl-1H-pyrazol-4-yl)pyrazolo[1,5-a]pyridin-4-yl)pyridin-2-yl)piperazin-1-yl)ethanone] |
| 606 nM | Cn1cc(-c2cc(-c3ccc(N4CCN(C(=O)[C@H](O)c5ccccc5)CC4)nc3)c3c(Cl)cnn3c2)cn1 [Example 327, (R)-1-(4-(5-(3-chloro-6-(1-methyl-1H-pyrazol-4-yl)pyrazolo[1,5-a]pyridin-4-yl)pyridin-2-yl)piperazin-1-yl)-2-hydroxy-2-phenylethanone] |
| 3700 nM | Cn1cc(-c2cc(-c3ccc(N4CCCC4)nc3)c3c(Cl)cnn3c2)cn1 [Example 339, 3-chloro-6-(1-methyl-1H-pyrazol-4-yl)-4-(6-(pyrrolidin-1-yl)pyridin-3-yl)pyrazolo[1,5-a]pyridine] |
| 237 nM | Cn1cc(-c2cc(-c3ccc(N4CCN(C(=O)C5(c6ccc(Cl)cc6)CC5)CC4)nc3)c3c(C#N)cnn3c2)cn1 [Example 341, 4-(6-(4-(1-(4-chlorophenyl)cyclopropanecarbonyl)piperazin-1-yl)pyridin-3-yl)-6-(1-methyl-1H-pyrazol-4-yl)pyrazolo[1,5-a]pyridine-3-carbonitrile] |
| 385 nM | COc1ccc(C2(C(=O)N3CCN(c4ccc(-c5cc(-c6cnn(C)c6)cn6ncc(C#N)c56)cn4)CC3)CC2)cc1 [Example 344, 4-(6-(4-(1-(4-methoxyphenyl)cyclopropanecarbonyl)piperazin-1-yl)pyridin-3-yl)-6-(1-methyl-1H-pyrazol-4-yl)pyrazolo[1,5-a]pyridine-3-carbonitrile] |
| 305 nM | Cn1cc(-c2cc(-c3ccc(N4CCN(C(=O)C5(c6ccc(F)cc6)CC5)CC4)nc3)c3c(C#N)cnn3c2)cn1 [Example 345, 4-(6-(4-(1-(4-fluorophenyl)cyclopropanecarbonyl)piperazin-1-yl)pyridin-3-yl)-6-(1-methyl-1H-pyrazol-4-yl)pyrazolo[1,5-a]pyridine-3-carbonitrile] |
| 404 nM | Cn1cc(-c2cc(-c3ccc(N4CCN(C(=O)C5(c6cccc(F)c6)CC5)CC4)nc3)c3c(C#N)cnn3c2)cn1 [Example 349, 4-(6-(4-(1-(3-fluorophenyl)cyclopropanecarbonyl)piperazin-1-yl)pyridin-3-yl)-6-(1-methyl-1H-pyrazol-4-yl)pyrazolo[1,5-a]pyridine-3-carbonitrile] |
| 1760 nM | CN(C)C(C(=O)N1CCN(c2ccc(-c3cc(-c4cnn(C)c4)cn4ncc(C#N)c34)cn2)CC1)c1ccc(F)cc1 (centres unmarked) [Example 351, 4-(6-(4-(2-(dimethylamino)-2-(4-fluorophenyl)acetyl)piperazin-1-yl)pyridin-3-yl)-6-(1-methyl-1H-pyrazol-4-yl)pyrazolo[1,5-a]pyridine-3-carbonitrile] |
